{
  "source": "patent US9850470B2",
  "about": "“Polyene-specific glycosyltransferase derived from Pseudonocardia autotrophica” (INHA-INDUSTRY PARTNERSHIP INSTITUTE, priority 2013, dated 2017)",
  "key": {"[1]": {"test": "hemolytic activity of NPP compared with nystatin", "format": "cell-based"}, "[2]": {"test": "solubility of NPP compared with nystatin", "format": "physicochemical"}, "[3]": {"conditions": "relative to nystatin which contains only a saccharide"}, "[4]": {"conditions": "relative to nystatin, which contains only mycosamine"}},
  "data": [
    {"smiles": "CC(=O)NC1C(OC2C(C)OC(OC3/C=C/C=C/C=C/C=C/CC/C=C/C=C/C(C)C(O)C(C)C(C)OC(=O)CC(O)CC(O)CC(O)CCC(O)C(O)CC4(O)CC(O)C(C(=O)O)C(C3)O4)C(O)C2N)OC(CO)C(O)C1O", "note": "(stereo not shown) [NPP, nystatin-like polyene (NPP)]", "values": [
      {"measurement": "hemolytic activity compared with nystatin (in words)", "setting": "[1]; [3]", "result": "lower hemolytic activity"},
      {"measurement": "lower hemolytic activity than nystatin", "setting": "[1]; [4]", "result": 10, "unit": "fold"},
      {"measurement": "solubility compared with nystatin (in words)", "setting": "[2]; [3]", "result": "higher solubility"},
      {"measurement": "higher solubility than nystatin", "setting": "[2]; [4]", "result": "more than 300 fold"}
    ]}
  ]
}
